Here are results for one molecule from US20250296942A1, “Phosphonate-Based Coordination Complexes and Methods of Preparation and Use Thereof” (University of Puerto Rico, priority 2021, published 2025).

A value given as a limit tells only on which side of the number the result lay.

For the test, the system named is human osteoblast hFOB 1.19 cell line. The test is described as follows: AlamarBlue cytotoxicity, BPBPA series, hFOB 1.19. Format: cell-based. To be noted: for IC50: Homo sapiens, Osteoblast. As to the method:
Cell culture methods. MCF-7, MDA-MB-231, and hFOB 1.19 cell lines were incubated employing DMEM (37° C.) and DMEM: F12 (34° C.) medium, respectively, in a 5% CO2. Cell lines were supplemented using 10% FBS and 1% Pen-Strep and medium exchange was performed twice a week. Cell passages were carried out at 80% confluency.
Cell-based assays. Cell lines were seeded in 96 well plates at a density of 5×10^3 cells/mL, cells were incubated for 24 h before treatment. Both cell lines were treated with 100 μL of BPBPA (0-400 μM), LET (0-200 μM), unloaded and loaded nano-Ca@BPBPA (0-50 μM). All cell-based assays were performed for 24, 48, and 72 h of treatment. Control groups were treated with media (DMEM or DMEM: F12) supplemented with 1% Pen-Strep. Then, the media was removed and replaced with 100 μL of 10% AlamarBlue® solution. The 96 well plates were incubated for 4 h before measurements. Then, the fluorescence was assessed at 560 nm of excitation and λmax 590 nm of emission. The cell viability (%) was evaluated by contrasting the percentage of live cells of the control groups with the cells treated with BPBPA, LET, unloaded and loaded nano-Ca@BPBPA. The half-maximal inhibitory concentration (IC50) was determined for BPBPA and letrozole employing the dose-response curves (% cell live vs. concentration). The relative cell live (% RCL) was assessed for the unloaded and loaded nano-Ca@BPBPA, utilizing LET as a control group. The IC50 and % RCL were plotted using the GraphPad Prism software vs. 9.3.0.
The cytotoxicity of BPBPA (control), LET (control), nano-Ca@BPBPA (control), and drug-loaded nano-Ca@BPBPA (experimental) was investigated employing the human breast cancer, MCF-7 and MDA-MB-231, and the human osteoblast, hFOB 1.19, cell lines. The human MCF-7 cell line represents an ER-positive breast cancer model with estrogen, progesterone, and glucocorticoid receptors.^1 While, the human MDA-MB-231 cells correspond to a model of ER-negative breast cancer. Both selected cancer cell lines can be implicated in the development and progress of bone metastases in patients.^40,41 The human fetal hFOB 1.19 cells represent a homogeneous osteoblast-like (non-cancerous) model commonly employed to assess osteoblast differentiation.^42 The cytotoxicity of these materials was evaluated by determining the IC50 and % RCL. […] Similar results were found for MDA-MB-231 and hFOB 1.19 cell lines treated with LET (IC50 >200 μM) at the same time points (Supporting Information).
Cell culture methods. MCF-7 and MDA-MB-231 were incubated employing DMEM media at 37° C. in 5% CO2. The hFOB 1.19 cell lines were incubated using DMEM: F12 at 34° C. in 5% CO2. […]
AlamarBlue@assay. […] Then, the fluorescence was assessed at 560 nm of excitation and λmax 590 nm of emission.
A general note: The colour change of resazurin is a common sign of viable cells or microbes.

The IC50 is the point on the concentration scale where inhibition reaches its midpoint. A high value points to weaker potency in that assay. As to `N#Cc1ccc(C(c2ccc(C#N)cc2)n2cncn2)cc1` [LET, letrozole], for the setting “12.5 μM, 72 h”, the “% RCL” value came to 100±1%. Moreover, the IC50 reads like this: (24 h) more than 200 µM; (48 h) more than 200 µM; (72 h) more than 200 µM.
